According to US10160785B2, “Antimicrobial peptides and their use for the treatment of topical infections” (priority 2015, dated 2018):
Where a SMILES comes first, the peptide text is derived from it.

Key:
[1] = test system: S. aureus (Liberec) biofilm; assay: Bacterial biofilm, remaining metabolic activity (MTT); assay type: cell-based, Staphylococcus aureus; conditions: remaining metabolic activity of biofilm, 20 h
Experimental: (§1) Inoculum of S. aureus (Liberec) or P. aeruginosa (Liberec) cultivated overnight in BHI medium was diluted with fresh BHI medium containing 1% glucose to a final concentration to be ca. 10^8 CFU/ml. Then this was pipetted (100 μl) to 96-multiwell polystyrene plate which was incubated at 37° C. under rotary shaking (300 RPM) for 24 h. Medium without bacteria in the wells was used as a negative control. Supernatant from each well was drained and the biofilm formed on the bottom and on the walls of the wells was cautiously washed three times by sterile physiological solution (300 μl). The peptides tested in the concentrations of 1-128 μmol.l^−1 were prepared by twofold serial dilution of their stock solution (1 mmol.l^−1) in fresh BHI medium and then pipetted (100 μl) to the wells with formed biofilms. The biofilms covered by BHI medium without peptide were used as a positive control. The plates were then incubated for 20 h as described above. After that the liquid was drained out and wells were washed twice with sterile physiological solution.
(§2) The metabolic activity of surviving bacterial cells in the biofilm was determined by staining with MTT (3-(4,5-dimethylthiazol-2-yl)-2,5-diphenyl-2H-tetrazolium bromide) as follows: The mixture of BHI medium (100 μl) and 10 μl of the stock solution of MTT (5 mg/ml in physiological solution) was added to each well and the plate was incubated 40 min at 37° C. The liquid was drained out and the insoluble formazan crystals formed by reduction inside the biofilm were dissolved with dimethyl sulphoxide (100 μl). The intensity of staining in each well was measured as absorbance at 540 nm on a Tecan Infinite M200 Pro reader (Tecan GmbH, Austria). Remaining activity of surviving cells inside the biofilm was expressed for each well in percentage according to the following equation:
(§3) [formula] where A is the absorbance of the tested compound, ABL is the absorbance of the negative control, and AC is the absorbance of control biofilm.

[2] = test system: P. aeruginosa (Liberec) biofilm; assay: as above; assay type: cell-based, Pseudomonas aeruginosa; conditions: remaining metabolic activity of biofilm, 20 h
Experimental: as §1, §2, §3

in vitro = conditions: human
Experimental: The peptides in the concentrations 2-200 μmol.l^−1 were incubated with the suspension of human red blood cells (5% v/v) for 1 h at 37° C. in a physiological solution at a final volume of 0.2 ml. The samples were then centrifuged for 5 min at 250 g, and the absorbance of the supernatant was determined at 540 nm. Supernatants of red blood cells suspended in physiological solution and in 0.2% (v/v) TRITON X100 in physiological solution served as controls for zero hemolysis (blank) and 100% hemolysis, respectively. Hemolytic activity is expressed as the peptide concentration required for lysis of 50% of human erythrocytes in the assay (LC50).

[3] = test system: Candida albicans (Olomouc) biofilm; assay: C. albicans biofilm, remaining metabolic activity (XTT); assay type: cell-based
Experimental: Candida albicans (Olomouc) was sub-cultured overnight in YPD medium (10 g yeast extract (DIFCO, USA), 20 g peptone (OXOID), 20 g glucose (Penta) dissolved in 1 L of distilled water) at constant shaking (100 RPM) at 37° C. Next day, the overnight culture was diluted 1:100 into fresh YPD medium and incubated at constant shaking (200 RPM) at 37° C. until the mid-exponential growth phase was reached. Then the cells were harvested and washed twice by centrifugation in physiological solution (5000 RPM; 5 min). Cells were suspended in sterile salt solution and their optical density was determined at 600 nm.
A final yeast suspension was prepared at a cell density of 1×10^6 CFU (corresponding to optical density of 0.17 at 600 nm) in RPMI 1640 medium with L-glutamine (BioSera), NaHCO3 (2 g/l; Penta) and 0.165 mol.l^−1 MOPS (Duchefa)—further as RPMI broth medium 1.
Biofilms were formed on commercially available sterile, polystyrene, flat-bottomed, 96-well microtiter plates (TPP, SW). Cell suspension (100 μl) was pipetted into selected wells of a microtiter plate and incubated without shaking for 2 hours at 37° C. Afterwards, the wells were washed twice with sterile PBS buffer (1.44 g Na2HPO4, 0.24 g KH2PO4, 0.2 g KCl and 8 g NaCl in 1 l distilled water, pH=7; Penta). Fresh RPMI broth medium 1 (100 μl) was added to each well and the plate was sealed with parafilm and incubated without shaking for 48 hours at 37° C.
Planktonic and non-adherent cells were removed by threefold washing of the biofilm with sterile PBS buffer (200 μl). A twofold serial dilution was used to reach required peptide concentration (in RPMI broth medium 1) in each well. Peptide concentrations range was between 0.39-200 μmol.l^−1. Plates were then sealed with parafilm and incubated for 20 hours at 37° C.
The metabolic activity of surviving Candida cells in the treated biofilm was determined by staining with XTT (2,3-Bis(2-methoxy-4-nitro-5-sulphophenyl)-2H-tetrazolium-5-carboxanilide). Stock solution of PMS (phenazine methosulfate; 7.5 g/l; SIGMA, Czech Republic) stored at −20° C. was diluted in PBS buffer 1:100. Diluted PMS was further mixed (2:25) with stock solution of XTT (0.5 g/l; Alchimica, Slovakia) dissolved in PBS/RPMI broth medium (1:1). Mixture (100 μl) of PMS and XTT was added into treated biofilm in the wells and incubated for 90 min at 37° C. Then the intensity of staining in each well was measured as absorbance at 540 nm on a Tecan Infinite M200 Pro reader (Tecan GmbH, Austria). Remaining metabolic activity of the cells in the biofilm was expressed for each well in percentage and calculated as follows:
[formula] where A is the absorbance of tested compound, ABL is the absorbance of negative control and AC is the absorbance of control untreated biofilm. The non-inoculated wells served as negative control. Inoculated wells not treated with compound served as positive control. Amphotericin B was used as control drug to ensure quality of Candida albicans. The values of remaining metabolic activity of treated biofilms are shown at Table 5.

[4] = peptide concentration 8 μmol · l^−1
[5] = peptide concentration 16 μmol · l^−1
[6] = peptide concentration 32 μmol · l^−1
[7] = peptide concentration 64 μmol · l^−1
[8] = peptide concentration 128 μmol · l^−1
[9] = peptide concentration 6.25 μmol · l^−1, 20 hours
[10] = peptide concentration 12.5 μmol · l^−1, 20 hours
[11] = peptide concentration 25 μmol · l^−1, 20 hours
[12] = peptide concentration 50 μmol · l^−1, 20 hours
[13] = peptide concentration 100 μmol · l^−1, 20 hours
[14] = peptide concentration 200 μmol · l^−1, 20 hours

Compound | Metabolic activity (%) S. aureus (Liberec) [1, 4] [%] | Metabolic activity (%) S. aureus (Liberec) [1, 5] [%] | Metabolic activity (%) S. aureus (Liberec) [1, 6] [%] | Metabolic activity (%) S. aureus (Liberec) [1, 7] [%] | Metabolic activity (%) S. aureus (Liberec) [1, 8] [%] | Metabolic activity (%) P. aeruginosa (Liberec) [2, 4] [%] | Metabolic activity (%) P. aeruginosa (Liberec) [2, 5] [%] | Metabolic activity (%) P. aeruginosa (Liberec) [2, 6] [%] | Metabolic activity (%) P. aeruginosa (Liberec) [2, 7] [%] | Metabolic activity (%) P. aeruginosa (Liberec) [2, 8] [%] | CC50 at 1 h (in vitro) [µM] | Metabolic activity of C. albicans (%) [3, 9] [%] | Metabolic activity of C. albicans (%) [3, 10] [%] | Metabolic activity of C. albicans (%) [3, 11] [%] | Metabolic activity of C. albicans (%) [3, 12] [%] | Metabolic activity of C. albicans (%) [3, 13] [%] | Metabolic activity of C. albicans (%) [3, 14] [%] | HC50 at 1 h (in vitro) [µM]
NCC[C@H](O)C(=O)N[C@@H]1C[C@H](N)[C@@H](O[C@H]2O[C@H](CN)[C@@H](O)[C@H](O)[C@H]2O)[C@H](O)[C@H]1O[C@H]1O[C@H](CO)[C@@H](O)[C@H](N)[C@H]1O [Amikacin, reference compound] | 95.4 | 102.4 | 108.7 | 82.4 | 104.0 | 80.0 | 62.9 | 40.4 | 20.3 | 11.8 |  |  |  |  |  |  |  | 
CC[C@@H](C)[C@@H](NC(=O)CN)C(=O)N[C@H](CC(C)C)C(=O)N[C@H](CO)C(=O)N[C@H](CO)C(=O)N[C@H](CC(C)C)C(=O)N[C@H](CC(C)C)C(=O)N[C@H](CCCCN)C(=O)N[C@H](CCCCN)C(=O)N[C@H](CC(C)C)C(=O)N[C@H](CCCCN)C(=O)N[C@H](CCCCN)C(=O)N[C@@H](C(=O)N[C@@H](C(=O)N[C@H](C)C(=O)N[C@H](CCCCN)C(N)=O)[C@H](C)CC)[C@H](C)CC [IV] (HELM PEPTIDE1{G.[dI].[dL].[dS].[dS].[dL].[dL].[dK].[dK].[dL].[dK].[dK].[dI].[dI].[dA].[dK].[am]}$$$$V2.0) | 65.5 | 34.2 | 7.1 | 3.0 | 0.0 | 56.5 | 69.5 | 56.0 | 59.6 | 21.7 | 333 | 106.9 | 37.2 | 6.0 | 2.3 | 2.1 | 0.5 | 
CN[C@H](CC(C)C)C(=O)N[C@H]1C(=O)N[C@@H](CC(N)=O)C(=O)N[C@H]2C(=O)N[C@H]3C(=O)N[C@H](C(=O)N[C@H](C(=O)O)c4cc(O)cc(O)c4-c4cc3ccc4O)[C@H](O)c3ccc(c(Cl)c3)Oc3cc2cc(c3O[C@@H]2O[C@H](CO)[C@@H](O)[C@H](O)[C@H]2O[C@H]2C[C@](C)(N)[C@H](O)[C@H](C)O2)Oc2ccc(cc2Cl)[C@H]1O [Vancomycin, reference compound] | 52.8 | 15.9 | 9.7 | 8.5 | 6.3 |  |  |  |  |  |  |  |  |  |  |  |  | 
CC[C@@H](C)[C@@H](NC(=O)CN)C(=O)N[C@H](CC(C)C)C(=O)N[C@H](CO)C(=O)N[C@H](CO)C(=O)N[C@H](CC(C)C)C(=O)N[C@H](Cc1c[nH]c2ccccc12)C(=O)N[C@H](CCCCN)C(=O)N[C@H](CCCCN)C(=O)N[C@H](CC(C)C)C(=O)N[C@H](CCCCN)C(=O)N[C@H](CCCCN)C(=O)N[C@@H](C(=O)N[C@@H](C(=O)N[C@H](C)C(=O)N[C@H](CCCCN)C(N)=O)[C@H](C)CC)[C@H](C)CC [XIII] (HELM PEPTIDE1{G.[dI].[dL].[dS].[dS].[dL].[dW].[dK].[dK].[dL].[dK].[dK].[dI].[dI].[dA].[dK].[am]}$$$$V2.0) | 71.6 | 33.8 | 21.5 | 20.4 | 5.3 | 71.2 | 65.8 | 61.2 | 73.6 | 23.0 | 191 | 78.3 | 56.9 | 37.2 | 10.9 | 5.8 | 4.9 | 
H-GILSSLLKKLKKIIAK-NH2 [III] | 87.8 | 89.6 | 78.4 | 15.9 | 2.4 |  |  |  |  |  | 284 | 104.7 | 113.6 | 87.2 | 31.1 | 28.4 | 0.0 | 
H-GILSSLWKKLKKIIAK-NH2 [XII] | 52.2 | 31.5 | 18.9 | 14.7 | 1.0 | 77.3 | 69.3 | 66.9 | 44.4 | 57.9 | 197 | 86.8 | 80.3 | 94.8 | 63.6 | 6.2 | 3.2 | 
H-GIMSSLMKKLAAHIKK-NH2 [VIII] |  |  |  |  |  |  |  |  |  |  |  |  |  |  |  |  |  | > 400
